Laboratory results published in patent EP0170168A2, “N,N,-diethyl, N'-aryl, N'-(dichlorfluormethylthio)sulfamide-microbiocides” (BAYER AG, priority 1984, dated 1986).

Legend:
[1] = system: Coriolus versicolor; test: Toxic limit values on impregnated wood discs (method after Sutter), beech wood; format: cell-based; details: Coriolus versicolor (Buche)
Description: (§1) Bestimmung der toxischen Grenzwerte (kg/m^3 Holz) der Wirkstoffe gemäß Beispiel 1 und 2 für Coniophora puteana bzw. Coriolus versicolor auf Kiefern- bzw. Buchenholz. Die Bestimmung der toxischen Grenzwerte erfolgt in Anlehnung an die von H.P. Sutter, Int. Biodeterioration Bulletin 14 (3), 1978, Seiten 95 bis 99, beschriebenen Methode.
(§2) Für die Tests werden jeweils frisch geschnittene dünne Stirnholzscheibchen (Größe 40 x 40 mm, Dicke etwa 2 mm) im Vakuum mit Lösungen unterschiedlich definierter Wirkstoffkonzentration getränkt. Die Menge des absorbierten Wirkstoffs in kg/m^3 Holz wird aus der Retention der Lösung (durch Einzelwägung der Holzproben vor und nach der Imprägnierung bestimmt), der Holzdichte und der Konzentration des Wirkstoffs in der verwendeten Imprägnierlösung errechnet.
(§3) Je 5 der 15 getrockneten Prüflinge einer Wirkstoffkonzentration werden dem Pilzangriff ohne Belastung ausgesetzt, 5 weitere Proben werden vorher im Windkanal (Windgeschwindigkeit: 1 + 0,1 m/sec; Temp.: 40 + 2°C) 4 Wochen lang belastet, 5 andere Prüflinge werden einer Wässerung in Anlehnung an DIN EN 84 unterzogen (14 Tage Lagerung in dest. Wasser bei 20°C, 9-maliger Wasserwechsel).
(§4) Für den mykologischen Test werden die Prüflinge nach Sterilisieren mit Propylenoxid einzeln auf das voll entwickelte Pilzmycel des Prüfpilzes auf Malzextraktagar in Petrischalen aufgelegt, durch Distanzhalter beträgt der Abstand zwischen Agaroberfläche und Probe ca. 5 mm. Nach 6wöchiger Lagerung bei 21-23°C wird der Zerstörungsgrad der Prüfling visuell beurteilt.
(§5) Als Grenzwerte der toxischen Wirkung werden die beiden Konzentrationen des Wirkstoffs in kg/m^3 Holz ermittelt, bei denen das Holz gerade noch und nicht mehr angegriffen wird.
(§6) In der folgenden Tabelle sind die Mittelwerte der Toxizitätsgrenzwerte für die erfindungsgemäßen Substanzen gemäß Beispiel 1 und 2 sowie für den bekannten Wirkstoff Dichlorfluonid für zwei Prüfpilze und zwei verschiedene Holzarten angegeben.
(§7) Mittlere Toxizitätsgrenzen (kg/m^3 Holz) von Wirkstoffen gemäß Beispiel 1 und 2 für holzzerstörende Pilze.

[2] = Solubility in organic solvents for wood preservatives; format: physicochemical; details: for Löslichkeit (%) in Shellsol AB: solvent Shellsol AB; for Löslichkeit (%) in Testbenzin: solvent Testbenzin
Description: Löslichkeiten erfindungsgemäßer Wirkstoffe nach Beispiel 1 und 2 im Vergleich zum handelsüblichen Dichlofluanid in organischen Lösungsmitteln für Holzschutzmittel
(Testbenzin und Shellsol AB sind handelsübliche niedrigsiedende Kohlenwasserstoffe).

[3] = system: Coniophora puteana; test: Toxic limit values on impregnated wood discs (method after Sutter), pine wood; format: cell-based; details: Coniophora puteana (Kiefer)
Description: as §1, §2, §3, §4, §5, §6, §7

[4] = nach Belüftung (wind tunnel 4 weeks, 40°C)
[5] = nach Wässerung (14 days in distilled water, 20°C)
[6] = ohne Belastung, 6 weeks at 21-23°C

| SMILES | Mittlere Toxizitätsgrenzen [1, 4] | Mittlere Toxizitätsgrenzen [1, 5] | Mittlere Toxizitätsgrenzen [1, 6] | Löslichkeit (%) in Shellsol AB [2] | Löslichkeit (%) in Testbenzin [2] | Mittlere Toxizitätsgrenzen [3, 4] | Mittlere Toxizitätsgrenzen [3, 5] | Mittlere Toxizitätsgrenzen [3, 6] |
| --- | --- | --- | --- | --- | --- | --- | --- | --- |
| CCN(CC)S(=O)(=O)N(SC(F)(Cl)Cl)c1ccccc1 [Beispiel 1, N,N-Diethyl-N'-phenyl-N'-(dichlorfluormethylthio)-sulfamid] | 2,7 kg/m^3 Holz | 1,1 kg/m^3 Holz | 0,6 kg/m^3 Holz | 71% | 16% | 2,0 kg/m^3 Holz | 0,8 kg/m^3 Holz | 0,4 kg/m^3 Holz |
| CCN(CC)S(=O)(=O)N(SC(F)(Cl)Cl)c1ccc(C)cc1 [Beispiel 2, N,N-Diethyl-N'-(p-tolyl)-N'-(dichlorfluormethylthio)-sulfamid] |  |  | 1,5 kg/m^3 Holz | 67% | 59% |  |  | 0,7 kg/m^3 Holz |
| CN(C)S(=O)(=O)N(SC(F)(Cl)Cl)c1ccccc1 [Dichlofluanid, N,N-Dimethyl-N'-phenyl-N'-(fluordichlormethylthio)-sulfamid, reference compound] | 3,5 kg/m^3 Holz | 3,2 kg/m^3 Holz | 2,5 kg/m^3 Holz | 6% | 1,2% | 3,7 kg/m^3 Holz | 2,4 kg/m^3 Holz | 1,9 kg/m^3 Holz |
